Measured values as given in article PMC5620609 (Pharmaceuticals, 2017).

What was measured:
[1] = biological target: T1, RNR (Homo sapiens, UniProt P23921); assay: RNR inhibition whole cell assay (HPLC of nucleotides from HeLa cell extracts); format: cell-based; conditions: 50 µM, 16 h
T1 construct: endogenous in cells; host or cells: HeLa
T1 sequence (P23921 1-792): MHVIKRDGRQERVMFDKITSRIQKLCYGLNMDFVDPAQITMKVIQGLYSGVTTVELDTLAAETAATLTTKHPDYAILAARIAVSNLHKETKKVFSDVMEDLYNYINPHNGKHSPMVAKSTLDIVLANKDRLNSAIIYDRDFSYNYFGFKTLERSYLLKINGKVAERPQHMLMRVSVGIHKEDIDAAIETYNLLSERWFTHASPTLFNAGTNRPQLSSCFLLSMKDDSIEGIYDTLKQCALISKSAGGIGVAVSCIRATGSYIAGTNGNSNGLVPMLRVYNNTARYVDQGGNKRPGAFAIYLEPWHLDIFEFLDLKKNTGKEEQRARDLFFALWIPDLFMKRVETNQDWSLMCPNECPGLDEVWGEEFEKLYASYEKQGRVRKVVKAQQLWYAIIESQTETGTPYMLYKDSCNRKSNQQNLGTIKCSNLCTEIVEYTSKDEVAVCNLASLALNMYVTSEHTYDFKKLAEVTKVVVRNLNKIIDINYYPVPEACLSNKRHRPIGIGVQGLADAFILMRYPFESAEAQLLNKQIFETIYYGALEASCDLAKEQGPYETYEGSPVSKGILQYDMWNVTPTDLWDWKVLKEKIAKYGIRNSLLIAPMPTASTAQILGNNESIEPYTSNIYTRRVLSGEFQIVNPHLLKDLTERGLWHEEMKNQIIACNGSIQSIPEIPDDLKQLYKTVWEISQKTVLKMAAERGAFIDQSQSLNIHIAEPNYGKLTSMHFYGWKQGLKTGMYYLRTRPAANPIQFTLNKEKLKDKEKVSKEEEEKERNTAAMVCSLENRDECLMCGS
T1 sequence (P31350 1-389 partner): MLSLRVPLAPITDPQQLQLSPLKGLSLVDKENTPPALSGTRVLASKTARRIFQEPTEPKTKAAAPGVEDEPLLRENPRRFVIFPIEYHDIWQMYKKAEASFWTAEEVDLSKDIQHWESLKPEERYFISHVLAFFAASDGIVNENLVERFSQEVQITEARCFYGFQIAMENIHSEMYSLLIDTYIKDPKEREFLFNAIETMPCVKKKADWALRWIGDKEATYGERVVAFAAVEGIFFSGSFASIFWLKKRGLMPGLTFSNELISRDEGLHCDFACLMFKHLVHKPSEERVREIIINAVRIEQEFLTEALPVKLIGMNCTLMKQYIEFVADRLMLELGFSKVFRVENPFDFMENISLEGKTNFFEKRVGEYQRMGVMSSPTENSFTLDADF
From the text: Gemcitabine was used as a positive control.
The method used to extract and quantitate nucleotides followed previously reported procedures.

[2] = Hydrolysis of the 5-azacytosine base; format: physicochemical; conditions: data not shown
[3] = tested on: HL-60; assay: NCI 60 cell line panel: HL-60; format: cell-based, human; conditions: Leukemia, TP53 null/mutant
From the text: (§1) Details of the NCI 60 One Dose Screen are well known and available online.

[4] = tested on: MOLT-4; assay: NCI 60 cell line panel: MOLT-4; format: cell-based, human; conditions: Leukemia, TP53 null/mutant
From the text: as §1

[5] = tested on: HCT-15; assay: NCI 60 cell line panel: HCT-15; format: cell-based, human; conditions: Colon cancer, TP53 null/mutant
From the text: as §1

[6] = tested on: LOX IMVI; assay: NCI 60 cell line panel: LOX IMVI; format: cell-based, human; conditions: Melanoma, TP53 wild type
From the text: as §1

## Nc1ncn([C@@H]2O[C@H](CO)[C@@H](O)C2(F)F)c(=O)n1 [NUC013, 5-aza-2′,2′-difluroro deoxycytidine]
[1]
  ADP concentration: 13,845
  ATP concentration: 21,335
  CTP concentration: 1279
  GTP concentration: 2006
  UTP concentration: 4070
  dATP, peak area: 10.2 AU
  dGDP, peak area: 5.6 AU
  dTDP, peak area: 18.65 AU
  dUTP, peak area: 8.8 AU
[2]
  hydrolysis at the 6-position of the cytosine ring: susceptible to hydrolysis
[3]
  Growth (%) at 10 µM: 25.23%
[4]
  Growth (%) at 10 µM: 35.63%
[5]
  Growth (%) at 10 µM: 52.19%
[6]
  Growth (%) at 10 µM: 34.53%
